Assay results published in ChEMBL document CHEMBL1129685, “Mechanism-based inhibition of L-pipecolate oxidase by 4,5-dehydro-L-pipecolic acid” (J Med Chem, 1996).

Biological target: T1, Peroxisomal sarcosine oxidase (Homo sapiens) (UniProt Q9P0Z9)
T1 sequence (whole entry): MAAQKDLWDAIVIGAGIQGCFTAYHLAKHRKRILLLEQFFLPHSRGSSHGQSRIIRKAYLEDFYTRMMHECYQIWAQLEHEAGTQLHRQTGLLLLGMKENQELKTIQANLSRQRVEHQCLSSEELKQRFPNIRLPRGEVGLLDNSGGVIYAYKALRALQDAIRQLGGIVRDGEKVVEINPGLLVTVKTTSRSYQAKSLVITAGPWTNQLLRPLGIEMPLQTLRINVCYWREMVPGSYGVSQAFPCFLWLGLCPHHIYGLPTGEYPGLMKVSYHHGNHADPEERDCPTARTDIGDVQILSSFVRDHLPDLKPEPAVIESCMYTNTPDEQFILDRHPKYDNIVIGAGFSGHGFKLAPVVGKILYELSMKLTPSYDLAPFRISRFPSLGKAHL
Assay: Kinetic parameter inactivation constant was determined on L-pipecolate oxidase from Rhesus monkey
Settings: Cercopithecidae; target entry is the homologue from another species

## O=C(O)[C@@H]1CCCCN1
  Kiact: 2 min⁻¹
